US20240199542A1, “SUBSTITUTED PYRROLIDIN-2-ONES, SALTS THEREOF AND THEIR USE AS HERBICIDALLY ACTIVE SUBSTANCES” (Bayer Aktiengesellschaft, priority 2021, published 2024)

Legend:
Format in all cases: in vivo
[1] = system: Echinochloa crus-galli (ECHCG); assay: Herbicidal post-emergence action; settings: 1280 g/ha, assessed after ca. 3 weeks
Text: (§1) Seeds of mono- and dicotyledonous weed plants and crop plants were sown, in plastic or organic planting pots, in sandy loam, covered with soil and grown in a greenhouse under controlled growth conditions. 2 to 3 weeks after sowing, the test plants were sprayed in the single-leaf stage. The compounds according to the invention, formulated in form of wettable powders (WP) or as emulsifiable concentrates (EC), were sprayed onto the green plant parts as aqueous suspension or emulsion, with the addition of 0.5% of an additive, at an application rate of 600 1 of water/ha (converted). The test plants were placed in the greenhouse for ca. 3 weeks under optimum growth conditions, and then the effect of the preparations was assessed visually in comparison with untreated controls (herbicidal effect in percent (%): 100% effect=plants have died off, 0% effect=as control plants).
(§2) Tables B1 to B16 below show the effects of selected compounds of the general formula (I) according to table 1 on various harmful plants and an application rate corresponding to 1280 g/ha or 320 g/ha obtained by the experimental procedure mentioned above.

Setaria viridis (SETVI) [2] = assay: Herbicidal post-emergence action; settings: 1280 g/ha, assessed after ca. 3 weeks
Text: as §1, §2

[3] = system: Alopecurus myosuroides (ALOMY); assay: Herbicidal pre-emergence action; settings: 1280 g/ha, graded after ca. 3 weeks
Text: (§3) Seeds of mono- and dicotyledonous weed plants and crop plants were sown, in plastic or organic planting pots, in sandy loam and covered with soil. The compounds according to the invention, formulated in the form of wettable powders (WP) or as emulsifiable concentrates (EC), were applied to the surface of the covering soil as aqueous suspension or emulsion, with the addition of 0.5% of an additive, at an application rate of 600 1 of water/ha (converted).
(§4) Following treatment, the pots were placed in a greenhouse and kept under optimum growth conditions for the test plants. The visual grading of the damage to the test plants was carried out after ca. 3 weeks in comparison to untreated controls (herbicidal effect in percent (%): 100% effect=plants have died off, 0% effect=as control plants).
(§5) Tables A1 to A16, below, show the effects of selected compounds of the general formula (I) according to table 1 on various harmful plants and an application rate corresponding to 1280 g/ha or lower obtained by the experimental procedure mentioned above.

Avena fatua (AVEFA) [4] = assay: Herbicidal pre-emergence action; settings: graded after ca. 3 weeks
Text: as §3, §4, §5

[5] = system: Echinochloa crus-galli (ECHCG); assay: Herbicidal pre-emergence action; settings: 1280 g/ha, graded after ca. 3 weeks
Text: as §3, §4, §5

[6] = system: Polygonum convolvulus (POLCO); assay: Herbicidal pre-emergence action; settings: graded after ca. 3 weeks
Text: as §3, §4, §5

[7] = system: Alopecurus myosuroides (ALOMY); assay: Herbicidal post-emergence action; settings: 1280 g/ha, assessed after ca. 3 weeks
Text: as §1, §2

[8] = system: Lolium multiflorum (LOLMU); assay: Herbicidal post-emergence action; settings: 1280 g/ha, assessed after ca. 3 weeks
Text: as §1, §2

Avena fatua (AVEFA) [9] = assay: Herbicidal post-emergence action; settings: 1280 g/ha, assessed after ca. 3 weeks
Text: as §1, §2

[10] = system: Lolium multiflorum (LOLMU); assay: Herbicidal pre-emergence action; settings: 1280 g/ha, graded after ca. 3 weeks
Text: as §3, §4, §5

Setaria viridis (SETVI) [11] = assay: Herbicidal pre-emergence action; settings: 1280 g/ha, graded after ca. 3 weeks
Text: as §3, §4, §5

Row | Compound | Post-emergence activity against ECHCG [1] | Pre-emergence activity against ALOMY [3] | Pre-emergence activity against AVEFA (Avena fatua (AVEFA) [4]; 1280 g/ha) | Post-emergence activity against ALOMY [7] | Post-emergence activity against AVEFA (Avena fatua (AVEFA) [9]) | other results
1 | O=C(CC1CCC(=O)N1Cc1cccc(F)c1F)NC(Cc1ccccc1)C(=O)O (mixture of isomers) [Example I-044] | 90% | 80% | 90% |  |  | Post-emergence activity against SETVI (Setaria viridis (SETVI) [2]): 80%; Pre-emergence activity against ECHCG [5]: 80%; Pre-emergence activity against POLCO ([6]; 1280 g/ha): 90%
2 | CC(C)CC(NC(=O)CC1CCC(=O)N1Cc1cccc(F)c1F)C(=O)O (mixture of isomers) [Example I-045] |  |  | 90% | 80% |  | Post-emergence activity against LOLMU [8]: 80%; Post-emergence activity against SETVI (Setaria viridis (SETVI) [2]): 80%; Pre-emergence activity against ECHCG [5]: 80%
3 | O=C(CC1CCC(=O)N1Cc1cccc(F)c1F)NC(Cc1c[nH]c2ccccc12)C(=O)O (mixture of isomers) [Example I-068] |  | 80% | 80% |  |  | 
4 | CSCCOC(=O)CC1CCC(=O)N1Cc1cccc(F)c1F (racemic) [Example I-010] | 100% | 80% | 100% | 80% | 90% | Post-emergence activity against LOLMU [8]: 90%; Post-emergence activity against SETVI (Setaria viridis (SETVI) [2]): 90%
5 | CC(C)OC(=O)CC1CCC(=O)N1Cc1cccc(F)c1F (racemic) [Example I-025] | 90% | 90% | 100% | 80% | 80% | Post-emergence activity against LOLMU [8]: 80%; Pre-emergence activity against LOLMU [10]: 90%; Pre-emergence activity against ECHCG [5]: 90%; Pre-emergence activity against POLCO ([6]; 1280 g/ha): 80%; Pre-emergence activity against SETVI (Setaria viridis (SETVI) [11]): 80%
6 | O=C(CC1CCC(=O)N1Cc1cccc(F)c1F)OCC[S+]([O-])c1ccc(Cl)cc1 (racemic) [Example I-029] | 90% | 80% | 100% | 80% | 90% | Post-emergence activity against LOLMU [8]: 80%; Pre-emergence activity against LOLMU [10]: 80%; Pre-emergence activity against ECHCG [5]: 90%; Pre-emergence activity against SETVI (Setaria viridis (SETVI) [11]): 80%
7 | Cc1ccc(CN2C(=O)CCC2CC(=O)O)c(F)c1F (racemic) [Example I-035] | 90% |  | 100% | 80% | 90% | Post-emergence activity against LOLMU [8]: 80%; Post-emergence activity against SETVI (Setaria viridis (SETVI) [2]): 100%; Pre-emergence activity against ECHCG [5]: 80%
8 | O=C(CC1CCC(=O)N1Cc1cccc(F)c1F)OCCSc1ccc(Cl)cc1 (racemic) [Example I-038] | 90% |  |  | 80% |  | Post-emergence activity against LOLMU [8]: 80%; Post-emergence activity against SETVI (Setaria viridis (SETVI) [2]): 80%
9 | O=C(CC1CCC(=O)N1Cc1cccc(F)c1F)NCCO (racemic) [Example I-049] |  | 90% | 100% | 80% |  | Pre-emergence activity against LOLMU [10]: 80%; Pre-emergence activity against ECHCG [5]: 80%; Pre-emergence activity against POLCO ([6]; 1280 g/ha): 90%
10 | O=C(CC1CCC(=O)N1Cc1cccc(F)c1F)NS(=O)(=O)C(F)(F)F (racemic) [Example I-052] | 80% |  | 90% |  |  | Post-emergence activity against LOLMU [8]: 80%
11 | COC(=O)CN(C)C(=O)CC1CCC(=O)N1Cc1cccc(F)c1F (racemic) [Example I-053] | 80% | 90% | 90% | 80% | 80% | 
12 | CN(C)NC(=O)CC1CCC(=O)N1Cc1cccc(F)c1F (racemic) [Example I-058] | 80% | 90% | 100% | 80% | 80% | Pre-emergence activity against LOLMU [10]: 80%
13 | C=CCNC(=O)CC1CCC(=O)N1Cc1cccc(F)c1F (racemic) [Example I-059] | 80% | 80% | 80% |  | 80% | 
14 | O=C(CC1CCC(=O)N1Cc1cccc(F)c1F)NCCc1ccccc1 (racemic) [Example I-061] | 80% | 80% | 90% | 90% | 90% | 
15 | CS(=O)(=O)NC(=O)CC1CCC(=O)N1Cc1cccc(Cl)c1F (racemic) [Example I-070] | 80% |  |  |  | 80% | 
16 | CCS(=O)(=O)NC(=O)CC1CCC(=O)N1Cc1cccc(F)c1F (racemic) [Example I-072] | 80% |  | 80% |  | 80% | 

Row | Compound | Post-emergence activity against ECHCG [1] | Pre-emergence activity against ALOMY [3] | Pre-emergence activity against AVEFA (Avena fatua (AVEFA) [4]; 1280 g/ha) | Post-emergence activity against ALOMY [7] | Post-emergence activity against AVEFA (Avena fatua (AVEFA) [9]) | other results
17 | O=C(CC1CCC(=O)N1Cc1cccc(F)c1F)NS(=O)(=O)C(F)F (racemic) [Example I-074] | 80% |  |  |  |  | 
18 | CC(C)S(=O)(=O)NC(=O)CC1CCC(=O)N1Cc1cccc(F)c1F (racemic) [Example I-076] |  |  | 80% |  | 80% | 
19 | O=C(CC1CCC(=O)N1Cc1cccc(F)c1F)NCc1cccc2ncccc12 (racemic) [Example I-079] |  |  |  |  | 90% | 
20 | COC(=O)CCNC(=O)CC1CCC(=O)N1Cc1cccc(F)c1F (racemic) [Example I-084] |  | 80% |  |  |  | 
21 | CCn1ccc(CNC(=O)CC2CCC(=O)N2Cc2cccc(F)c2F)n1 (racemic) [Example I-085] |  |  |  |  | 90% | 
22 | O=C(CC1CCC(=O)N1Cc1cccc(F)c1F)NS(=O)(=O)C1CC1 (racemic) [Example I-086] | 80% |  |  |  |  | 
23 | COCCNC(=O)CC1CCC(=O)N1Cc1cccc(F)c1F (racemic) [Example I-091] |  | 90% |  |  |  | 
24 | C#CCNC(=O)CC1CCC(=O)N1Cc1cccc(F)c1F (racemic) [Example I-092] |  |  | 80% |  |  | 
25 | CCNC(=O)CC1CCC(=O)N1Cc1cccc(F)c1F (racemic) [Example I-098] |  |  |  |  | 80% | 
26 | CN(C(=O)CC1CCC(=O)N1Cc1cccc(F)c1F)c1ccccc1 (racemic) [Example I-100] |  | 90% |  |  |  | 
27 | CNC(=O)CC1CCC(=O)N1Cc1cccc(F)c1F (racemic) [Example I-104] |  |  |  |  |  | Pre-emergence activity against POLCO ([6]; 1280 g/ha): 90%
28 | CC1(C)OC(=O)C(C(=O)CC2CCC(=O)N2Cc2cccc(F)c2F)C(=O)O1 (racemic) [Example I-186] | 80% |  |  |  |  | Pre-emergence activity against POLCO ([6]; 1280 g/ha): 100%
29 | O=C(CC1CCC(=O)N1Cc1cccc(F)c1F)NN1CCCCC1 (racemic) [Example I-203] |  |  |  |  |  | Pre-emergence activity against AVEFA (Avena fatua (AVEFA) [4]; 320 g/ha): 100%; Pre-emergence activity against POLCO ([6]; 320 g/ha): 80%
30 | CC[C@H](C)[C@H](NC(=O)CC1CCC(=O)N1Cc1cccc(F)c1F)C(=O)O (single isomer, unassigned) [Example I-011] | 80% | 80% | 90% |  | 90% | Post-emergence activity against LOLMU [8]: 90%; Pre-emergence activity against LOLMU [10]: 80%
31 | COC(=O)[C@H](Cc1c[nH]cn1)NC(=O)CC1CCC(=O)N1Cc1cccc(F)c1F (single isomer, unassigned) [Example I-050] | 80% |  |  |  |  | 
32 | O=C(O)CC1CCC(=O)N1Cc1c(F)ccc(F)c1F (stereo not drawn) [Example I-191, [5-Oxo-1-(2,3,6-trifluorobenzyl)pyrrolidin-2-yl]acetic acid] |  |  |  |  |  | Pre-emergence activity against AVEFA (Avena fatua (AVEFA) [4]; 320 g/ha): 100%
